Data reported in patent US20040019026A1, “Compounds useful for treating hypertriglyceridemia” (priority 2000, published 2004).

What was measured:
Female CD-1 mice = test: Dexamethasone-induced thymic and splenic atrophy, anti-glucocorticoid effect (Example 4); assay type: in vivo; settings: 1.6 mg dexamethasone s.c., sacrifice about 24 hours later
Experimental: Female CD-1 mice were obtained from Charles River Laboratories, Kingston, N.Y. at 43-45 days of age. The mice were housed five per cage in plastic shoebox cages on corn cob bedding in the Fels Animal Facility at 72°±2° F. with 50%±5% humidity and twelve hours of alternate light and darkness. The mice had ad libitum access to Purina chain 5015 and acidified water for pretreatment.
Six days later, the mice were weighed, earmarked and redistributed into six groups for treatment: 1) a control group, 2) a group treated with dexamethasone (“DEX”), a glucocorticoid which induces thymic and splenic atrophy, 3) a group treated with 200 mg/kg 16α-fluoro-5-androsten-17-one (hereinafter “drug”), 4) a group treated with 400 mg/kg of, 5) a group treated with dexamethasone and 200 mg/kg drug and 6) a group treated with dexamethasone and 400 mg/kg drug. The treatment in the groups were as follows and were conducted simuitaneously.
The control group was intubated with 0.2 mL of sesame oil for three days. On the third day after commencement of the intubation, the mice were injected subcutaneously with 0.05 mL of absolute ethanol one hour after the last treatment with sesame oil.
The second group was intubated with 0.2 mL of sesame oil for three days. On the third day after the commencement of the intubation, the mice were injected subcutaneously with 1.6 mg of dexamethasone dissolved in 0.05 mL of absolute ethanol approximately one hour after the last treatment with sesame oil.
The third and fourth groups were intubated with 200 mg/Kg and 400 mg/Kg drug, respectively, suspended in 0.2 mL of sesame oil for three days. After commencement of the intubation, the mice were injected subcutaneously with 0.05 mL of absolute ethanol approximately one hour after the last treatment with sesame oil.
The fifth and sixth groups were intubated with 200 mg/kg and 400 mg/kg, respectively, of drug, suspended in 0.2 mL of sesame oil for three days. On the third day after commencement of the intubation, the mice were injected subcutaneously with 1.6 mg of dexamethasome dissolved in 0.05 mL of absolute ethanol approximately one hour after the last treatment with sesame oil.
All of the mice were sacrificed by an overdose of CO2 approximately 24 hours after the injection of ethanol (first, third and fourth groups) or approximately 24 hours after injection with dexamethasone (second, fifth and sixth groups). The mice were weighed and the thymus was excised, cleaned of adventia, rinsed in phosphate-buffered saline (P.B.S.), blotted and weighed. The spleen was also excised, cleaned, rinsed, blotted and weighed.

[1] = background statement; cited from earlier work

SMILES | Spleen Wt. (Female CD-1 mice) [mg] | Thymus Wt. (Female CD-1 mice) [mg] | Effect on HDL levels [1] | Effect on insulin resistance [1] | Lowering of triglycerides [1] | Side effects [1]
C[C@@H]1C[C@H]2[C@@H]3CCC4=CC(=O)C=C[C@]4(C)[C@@]3(F)[C@@H](O)C[C@]2(C)[C@@]1(O)C(=O)CO [DEX, dexamethasone, reference compound] | 45.2 ± 7.5 | 36.8 ± 7.1 | – | – | – | –
Cc1ccc(C)c(OCCCC(C)(C)C(=O)O)c1 [Gemfibrozil, gemfibrozil] | – | – | modestly raises HDL levels | no effect on insulin resistance | 25-35% | –
O=C(O)c1cccnc1 [Nicotinic acid, nicotinic acid] | – | – | – | worsens insulin resistance | – | intense flushing and associated pruritus
